Values joined by “and” are separate entries in the source; they are usually repeats but may differ in a detail not shown here. Equal values may be shown once.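 In this assay, cells in 96-well plates receive the compound at five concentrations for 48 hours. Endpoints are linearly interpolated between the surrounding concentrations. GI50: concentration for 50% inhibition of growth. At the TGI there is no net growth.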
Key:
Experiment in all cases: DTP human tumour cell line panel, 48 h
SK-OV-3 ovarian = test system: SK-OV-3 ovarian
UACC-257 melanoma = test system: UACC-257 melanoma
CAKI-1 renal = test system: CAKI-1 renal
U251 CNS = test system: U251 CNS
HOP-92 NSCLC = test system: HOP-92 NSCLC
SF-268 CNS = test system: SF-268 CNS
A498 renal = test system: A498 renal
SR leukemia = test system: SR leukemia
NCI-H23 lung = test system: NCI-H23 lung
EKVX NSCLC = test system: EKVX NSCLC

Structure (SMILES) | GI50 (SK-OV-3 ovarian) [µM] | TGI (SK-OV-3 ovarian) | GI50 (UACC-257 melanoma) [µM] | TGI (UACC-257 melanoma) [µM] | GI50 (CAKI-1 renal) [µM] | TGI (CAKI-1 renal) [µM] | GI50 (U251 CNS) [µM] | TGI (U251 CNS) [µM] | GI50 (HOP-92 NSCLC) [µM] | TGI (HOP-92 NSCLC) | GI50 (SF-268 CNS) [µM] | TGI (SF-268 CNS) [µM] | GI50 (A498 renal) [µM] | TGI (A498 renal) [µM] | GI50 (SR leukemia) [µM] | TGI (SR leukemia) [µM] | GI50 (NCI-H23 lung) [µM] | TGI (NCI-H23 lung) | GI50 (EKVX NSCLC) [µM] | TGI (EKVX NSCLC) [µM]
O=C(Nc1cccc(-n2cc(-c3ccncc3)c(-c3ccc(O)c(Cl)c3)n2)c1)c1ccc2c(c1)OCCO2 | > 100 | > 100 µM | > 100 | > 100 | 6.34 | > 100 | 4.02 | > 100 | 2.26 | > 100 µM | > 100 | > 100 | > 100 | > 100 | 2.46 | > 100 | > 100 | > 100 µM | – | –
NCCCCCNc1noc(Cc2c[nH]c3cc(Br)ccc23)n1 | 2.46 | 12.5 µM | 11.9 | 25.5 | 6.84 | > 100 | 2.89 | 16.6 | 4.62 | 33.6 µM | 8.13 | 29.1 | 1.76 | 10.7 | 0.406 | 14.1 | 1.76 | 8.75 µM | – | –
O=C(O)c1cc2ccccc2c2c3c(ccc12)OCO3 | 236 | 739 µM | 220 | 600 | 185 | 761 | 134 | 478 | 18.7 | 96.5 µM | 188 | 580 | 125 | 324 | 136 | 507 | 188 | 584 µM | – | –
Nc1nonc1-c1nc2ccccc2n1Cc1ccc(F)cc1 | 16.8 | > 100 µM | > 100 | > 100 | 3.48 | > 100 | 7.48 | > 100 | 4.04 | 36.7 µM | 9.61 | > 100 | 2.2 | > 100 | 4.89 | > 100 | 87 | > 100 µM | – | –
Nc1ncnc2c1ncn2C1OC(COS(N)(=O)=O)C(O)C1O (stereo not drawn) | – | 0.00784 µM and 0.0758 µM | – | – | – | – | – | – | – | 0.00619 µM and 0.0611 µM | – | – | 0.0164 | 0.0344 | < 0.001 | 0.0136 | – | 0.00558 µM and 0.0546 µM | – | –
Cc1coc2c1C(=O)C(=O)c1ccccc1-2 | – | 3.25 µM | – | 0.542 | – | 3.63 | – | 2.97 | – | 1.28 µM | – | – | – | 3.25 | – | 4.78 | – | 4.09 µM | – | –
COc1cccc(-c2nn(-c3ccccc3)cc2-c2ccnc(NCCCNC(=O)c3cccc(C(F)(F)F)c3)c2)c1 | 7.04 | 29.2 µM | 4.4 | 15.8 | 6.27 | 32.5 | 4.37 | 17.5 | 2.48 | 17.4 µM | 9.51 | 87.8 | – | – | 2.1 | 8.02 | 4.49 | 24.2 µM | 5.01 | 36.2
Cc1ccc(C(=O)c2sc3nc4c(cc3c2N)CCCC4)c(C)c1 | 0.515 | > 100 µM | 0.539 | > 100 | 0.361 | > 100 | 0.376 | > 100 | 3.36 | 87.6 µM | 0.787 | > 100 | 0.236 | 11 | 0.124 | > 73 | 0.776 | > 100 µM | – | –
Cc1cccc(C)c1NC(=O)CCc1nnc2s/c(=C\c3ccc(N(C)C)cc3)c(=O)n12 | – | > 100 µM | – | > 100 | – | > 100 | – | > 100 | – | > 100 µM | – | > 100 | – | > 100 | – | > 100 | – | > 100 µM | – | –
NCCCOc1cc2ccccc2cc1C(=O)Nc1ccc(Cl)cc1OC(=O)c1cc2ccccc2cc1OCCCN | 1.57 | 3.19 µM | 1.01 | 2.32 | 1.4 | 4.12 | – | – | 1.64 | 3.71 µM | 0.922 | 2.44 | 1.53 | 2.92 | 0.257 | 1.48 | 0.387 | 1.2 µM | – | –
O=C1C(=C2CCCC2)CCC1CN1CCCCC1 (stereo not drawn) | – | – | – | 34.8 | – | – | – | > 100 | – | 37.7 µM | – | 37.5 | – | 35.7 | – | 47.1 | – | 36.4 µM | – | 35.4
C[P+](C)(C)C | – | > 100 µM | – | > 100 | – | > 100 | – | > 100 | – | > 100 µM | – | > 100 | – | – | – | > 100 | – | > 100 µM | – | > 100
N#Cc1ccc(-c2c(-c3ncn[nH]3)sc(N3CCOCC3)c2C#N)c(F)c1 | 0.197 | 5.69 µM | 0.418 | 8.85 | 0.432 | 15.6 | 1.03 | 21.7 | 0.0663 | 0.973 µM | 0.507 | 59.1 | 0.0225 | 0.206 | 1.88 | 19.8 | 3.32 | > 100 µM | – | –
